Here are results for 28 compounds from US6759538B2, “Substituted diphenyl heterocycles useful for treating HCV infection” (priority 2001, dated 2004).

In general, IC50 refers to the concentration that inhibits the measured activity by half.

The target in this test is HCV replicon. Nature of the test: HCV replicon assay (luciferase). The test is classed as cell-based, Hepatitis C virus (HCV). As to conditions: 5-2 Luc replicon cells, 24 hours with compound, luciferase emission; first symbol of Replicon/Western. The text has this:
In one embodiment, the inhibitory activity of the compounds can be confirmed in a replicon assay that assesses the ability of a test compound to block or inhibit HCV replication in replicon cells. One example of a suitable replicon assay is the liver cell-line Huh 7-based replicon assay described in Lohmann et al., 1999, Science 285:110-113. A specific example of this replicon assay which utilizes luciferase translation is provided in the Examples Section. In one embodiment of this assay, the amount of test compound that yields a 50% reduction in translation as compared to a control cell (IC50) may be determined.
The inhibitory activity of certain exemplary compounds of the invention was confirmed using an HCV replicon assay. The HCV replicon can include such features as the HCV 5′ untranslated region including the HCV IRES, the HCV 3′ untranslated region, selected HCV genes encoding HCV polypeptides, selectable markers, and a reporter gene such as luciferase, GFP, etc. In the assay, actively dividing 5-2 Luc replicon-comprising cells (obtained from Rolf Bartenschlager; see Lohmann et al., 1999, Science 285:110-113) were seeded at a density of between about 5,000 and 7,500 cells/well onto 96 well plates (about 90 μl of cells per well) and incubated at 37° C. and 5% CO2 for 24 hours. Then, the test compound (in a volume of about 10 μl) was added to the wells at various concentrations and the cells were incubated for an additional 24 hours before luciferase assay. The media was aspirated from each well and Bright-Glo (Promega, Madison, Wis.) luciferase assay reagents were added to each well according to the manufacturer's instructions. Briefly, the Bright-Glo reagent was diluted 1:1 with PBS and 100 μl of diluted reagent was added to each well. After 5 min of incubation at room temperature, luciferin emission was quantified with a luminometer. In this assay, the amount of test compound that yielded a 50% reduction in luciferase emission (IC50) was determined.
For orientation: Replicon systems follow genome replication, usually without infectious particles.

Where only a bound is given, the exact number is not on record here.

For the compound `O=C(Nc1cccc(-c2noc(-c3c(Cl)cccc3Cl)n2)c1)C(Cl)Cl` [Compound 87, 2,2-Dichloro-N-[3-[5-(2,6-dichlorophenyl)-3-(1,2,4-oxadiazolyl)]phenyl] Acetamide], the concentration for half-maximal inhibition (IC50) is at most 10 µM.

`O=C(Nc1cc(-c2cc(-c3c(Cl)cccc3Cl)no2)ccc1OCCN1CCOCC1)C(Cl)Cl` [Compound 171, 2,2-Dichloro-N-[3-[3-(2,6-dichlorophenyl)-5-isoxazolyl]-6-(N-morpholino-2-ethyleneoxy)phenyl] Acetamide]: the IC50 was above 10 µM.

Consider `CS(=O)(=O)c1cccc(F)c1-c1cc(-c2cccc(NC(=O)C(Cl)Cl)c2)on1` [Compound 153, 2,2-Dichloro-N-[3-[3-(2-fluoro-6-methylsulfonyl)phenyl-5-isoxazolyl]phenyl] Acetamide], for which the IC50 was above 10 µM.

For `Cc1cccc(C)c1-c1cc(-c2cccc(NC(=O)C(Cl)Cl)c2)on1` [Compound 47, 2,2-Dichloro-N-[3-[3-(2,6-dimethylphenyl)-5-isoxazolyl]phenyl] Acetamide], the IC50 was at most 10 µM.

As to `O=C(Nc1cccc(-c2cc(-c3c(C4CC4)cccc3C(F)(F)F)no2)c1)C(Cl)Cl` [Compound 89, 2,2-Dichloro-N-[3-[3-(2-cyclopropyl-6-trifluoromethylphenyl)-5-isoxazolyl]phenyl] Acetamide], the IC50 is at most 10 µM.

For the compound `CCOC(=O)C1CCN(c2cccc(Cl)c2-c2cc(-c3cccc(NC(=O)C(Cl)Cl)c3)on2)CC1` [Compound 151, 2,2-Dichloro-N-[3-[3-[2-chloro-6-(4-carboethoxypiperidino)phenyl]-5-isoxazolyl]-phenyl] Acetamide], the IC50 was above 10 µM.

In the case of `O=C(Nc1cccc(-c2cc(-c3c(Cl)ccc(Cl)c3Cl)no2)c1)C(Cl)Cl` [Compound 137, 2,2-Dichloro-N-[3-[3-(2,3,6-trichlorophenyl)-5-isoxazolyl]phenyl] Acetamide], the IC50 was above 10 µM.

In the case of `CC(C)c1cccc(C(F)(F)F)c1-c1cc(-c2cccc(NC(=O)C(Cl)Cl)c2)on1` [Compound 93, 2,2-Dichloro-N-[3-[3-(2-isopropyl-6-trifluoromethylphenyl)-5-isoxazolyl]phenyl] Acetamide], the IC50 is at most 10 µM.

Regarding `CC(C)Oc1ccccc1-c1cc(-c2cccc(NC(=O)C(Cl)Cl)c2)on1` [Compound 119, 2,2-Dichloro-N-[3-[3-(2-isopropyloxyphenyl)-5-isoxazolyl]phenyl] Acetamide], the IC50 was at most 10 µM.

In the case of `CN(C)CCN(C)c1cccc(Cl)c1-c1cc(-c2cccc(NC(=O)C(Cl)Cl)c2)on1` [Compound 131, 2-Dichloro-N-[3-[3-[2-chloro-6-(N,N-dimethylethylene-N′-methylamino)phenyl]-5-isoxazolyl]-phenyl] Acetamide], the IC50 was at most 10 µM.

With `CN(C)C1CCN(c2cccc(Cl)c2-c2cc(-c3cccc(NC(=O)C(Cl)Cl)c3)on2)C1` (racemic) [Compound 132, (±)-2,2-Dichloro-N-[3-[3-[2-chloro-6-(3-dimethylamino-N-pyrrolidino)phenyl]-5-isoxazolyl]-phenyl] Acetamide], the IC50 is at most 10 µM.

`O=C(Nc1cccc(-c2cc(-c3c(Cl)cccc3C3CCCC3)no2)c1)C(Cl)Cl` [Compound 97, 2,2-Dichloro-N-[3-[3-(2-chloro-6-cyclopentylphenyl)-5-isoxazolyl]phenyl] Acetamide]: the IC50 was at most 10 µM.

Regarding `COc1ccc(NC(=O)C(Cl)Cl)cc1-c1cc(-c2c(Cl)cccc2Cl)no1` [Compound 127, 2,2-Dichloro-N-[3-[3-(2,6-dichlorophenyl)-5-isoxazolyl]-4-methoxyphenyl] Acetamide], the IC50 is at most 10 µM.

For the compound `O=C(O)c1ccc(Cl)c(-c2cc(-c3cccc(NC(=O)C(Cl)Cl)c3)on2)c1Cl` [Compound 139, 2,2-Dichloro-N-[3-[3-(3-carboxy-2,6-dichlorophenyl)-5-isoxazolyl]phenyl] Acetamide], the IC50 was above 10 µM.

As to `COC(=O)c1ccccc1-c1cc(-c2cccc(NC(=O)C(Cl)Cl)c2)on1` [Compound 115, 2,2-Dichloro-N-[3-[3-(2-carbomethoxy)phenyl-5-isoxazolyl]phenyl] Acetamide], the IC50 is at most 10 µM.

With `COc1ccc(-c2cc(-c3c(Cl)cccc3Cl)no2)cc1NC(=O)C(Cl)Cl` [Compound 173, 2,2-Dichloro-N-[3-[3-(2,6-dichlorophenyl)-5-isoxazolyl]-6-methoxyphenyl] Acetamide], the IC50 is at most 10 µM.

Regarding `O=C(Nc1cccc(-c2cc(-c3ccccc3C(F)(F)F)no2)c1)C(Cl)Cl` [Compound 33, 2,2-Dichloro-N-[3-[3-(2-trifluoromethylphenyl)-5-isoxazolyl]phenyl] Acetamide], the IC50 was at most 10 µM.

With `O=C(Nc1cccc(-c2cc(-c3ccccc3C3CCCC3)no2)c1)C(Cl)Cl` [Compound 129, 2,2-Dichloro-N-[3-[3-(2-cyclopentylphenyl)-5-isoxazolyl]phenyl] Acetamide], the IC50 was at most 10 µM.

Consider `O=C(Nc1cccc(-c2cc(-c3c(F)cccc3C(F)(F)F)no2)c1)C(Cl)Cl` [Compound 41, 2,2-Dichloro-N-[3-[3-(2-fluoro-6-trifluoromethylphenyl)-5-isoxazolyl]phenyl] Acetamide], for which the IC50 is at most 10 µM.

As to `O=C(Nc1cccc(-c2cc(-c3c(Cl)cccc3C3CCCCC3)no2)c1)C(Cl)Cl` [Compound 111, 2,2-Dichloro-N-[3-[3-(2-chloro-6-cyclohexylphenyl)-5-isoxazolyl]phenyl] Acetamide], the IC50 was at most 10 µM.

For `O=C(Nc1cccc(-c2cc(-c3ccccc3OC(F)(F)F)no2)c1)C(Cl)Cl` [Compound 113, 2,2-Dichloro-N-[3-[3-(2-trifluoromethoxyphenyl)-5-isoxazolyl]phenyl] Acetamide], the IC50 was at most 10 µM.

Take `Cc1cccc(Cl)c1-c1cc(-c2cccc(NC(=O)C(Cl)Cl)c2)on1` [Compound 31, 2,2-Dichloro-N-[3-[3-(2-chloro-6-methylphenyl)-5-isoxazolyl]phenyl] Acetamide]: the IC50 is at most 10 µM.

For the compound `O=C(CCl)Nc1cccc(-c2cc(-c3c(Cl)cccc3Cl)no2)c1` [Compound 67, 2-Chloro-N-[3-[3-(2,6-dichlorophenyl)-5-isoxazolyl]phenyl] Acetamide], the half-inhibitory concentration (IC50) is at most 10 µM.

In the case of `Cc1cccc(C(F)(F)F)c1-c1cc(-c2cccc(NC(=O)C(Cl)Cl)c2)on1` [Compound 85, 2,2-Dichloro-N-[3-[3-(2-methyl-6-trifluoromethylphenyl)-5-isoxazolyl]phenyl] Acetamide], the IC50 is at most 10 µM.

`CN(C(=O)C(Cl)Cl)c1cccc(-c2cc(-c3c(Cl)cccc3Cl)no2)c1` [Compound 57, 2,2-Dicbloro-N-[3-[3-(2,6-dichlorophenyl)-5-isoxazolyl]phenyl]-N-methyl Acetamide]: the IC50 is at most 10 µM.

With `O=C(Nc1cccc(-c2cc(-c3c(C4CCCC4)cccc3C(F)(F)F)no2)c1)C(Cl)Cl` [Compound 105, 2,2-Dichloro-N-[3-[3-(2-cyclopentyl-6-trifluoromethylphenyl)-5-isoxazolyl]phenyl] Acetamide], the IC50 is at most 10 µM.

For the compound `Cc1c(NC(=O)C(Cl)Cl)cccc1-c1cc(-c2c(Cl)cccc2Cl)no1` [Compound 167, 2,2-Dichloro-N-[3-[3-(2,6-dichlorophenyl)-5-isoxazolyl]-2-methylphenyl] Acetamide], the IC50 was above 10 µM.

Regarding `COc1cccc(C(F)(F)F)c1-c1cc(-c2cccc(NC(=O)C(Cl)Cl)c2)on1` [Compound 77, 2,2-Dichloro-N-[3-[3-(2-methoxy-6-trifluoromethylphenyl)-5-isoxazolyl]phenyl] Acetamide], the IC50 is at most 10 µM.
